Measurements as given in patent US8377948B2, “Antitumor agents and methods of their use” (The Ohio State University Research Foundation, priority 2004, dated 2013).

Columns and labels:
[1] = system: different prostate cancer cell lines; experiment: Proliferation of different prostate cancer cell lines; type: cell-based; conditions: at low μM levels
Description: (§1) Further structural improvement was accomplished by replacing the methoxy side chains on the quinazoline ring with propoxy functions. Both 33 and 44 were effective in suppressing the proliferation of different prostate cancer cell lines at low μM levels. In addition, both agents were submitted to the Developmental Therapeutic Program (DTP) at the National Cancer Institute (NCI) for screening against sixty human tumor cells lines, representing leukemia, melanoma, and cancers of lung, colon, brain, ovary, breast, prostate, and kidney.

PC-3 cells [2] = experiment: MTT cell viability assay, PC-3 cells in 10% FBS medium; type: cell-based, human; conditions: RPMI 1640 with 10% FBS, means ± S.D. (n = 6)
Method: PC-3 (p53−/−) human androgen-nonresponsive prostate cancer cells were purchased from the American Type Tissue Collection (Manassas, Va.). Cells were cultured in RPMI 1640 medium (Gibco, Grand Island, N.Y.) supplemented with 10% fetal bovine serum (FBS; Gibco) at 37° C. in a humidified incubator containing 5% CO2.
(§2) Effect of the test agent on cell viability was assessed by the MTT {[3-(4,5-dimethylthiazol-2-yl)-2,5-diphenyl-2H-tetrazolium bromide]} assay in 96-well, flat-bottomed plates, in which 8,000 PC-3 or DU-145 cells/well were seeded. Cells were exposed to the test agent at the indicated concentrations, in six replicates, in 10% FBS-supplemented-RPMI-1640 medium at 37° C. in 5% CO2 for 48 hr. The medium was removed and replaced by 150 μL of 0.5 mg/mL of MTT in RPMI-1640 medium, and cells were incubated in the CO2 incubator at 37° C. for 2 h. Supernatants were removed from the wells, and the reduced MTT dye was solubilized with 200 μL/well DMSO. Absorbance was determined on a plate reader at 570 nm.
All compounds were evaluated for their ability to induce apoptotic death in human androgen-independent PC-3 prostate cancer in RPMI 1640 medium containing 10% fetal bovine serum (FBS). For representative compounds tested in DU-145 and LNCaP prostate cancer cells, the IC50 values for inhibiting cell proliferation were similar in these three cell lines irrespective of differences in androgen sensitivity, PTEN mutation, the functional status of p53 and Rb, and other biomarkers.

PC-3 cells [3] = experiment: Cell viability / apoptotic death of PC-3 cells in 1% FBS-supplemented RPMI 1640 medium; type: cell-based, human; conditions: for IC50: 1% FBS-supplemented medium
Description: (§3) (A) Left panel, Time- and dose-dependent effect of doxazosin on the cell viability of PC-3 cells in 1% FBS-supplemented RPMI 1640 medium. Values obtained from six replicates were plotted at each time point at the indicated concentrations of doxazosin. Right panel, induction of poly(ADP-ribose) polymerase (PARP) cleavage by doxazosin at the indicated concentrations after 48-h treatment. PARP proteolysis to the apoptosis-specific 85-kd fragment was monitored by Western blotting. Although there was no substantial accumulation of the 85-kd fragment, significant decrease in the level of native protein was noted. (B) Dose- and time-dependent (upper and lower panels, respectively) effects of doxazosin on Akt phosphorylation. (C) dose-dependent effect of doxazosin on ERK phosphorylation. PC-3 cells were treated with doxazosin at the indicated concentrations for 24 h or at 25 μM for the indicated times and lysed, and proteins in the resulting supernatants were resolved on SDS-PAGE and subjected to Western blot analysis. The phosphorylation status of Akt and ERKs was determined by immunoblotting with the respective phospho-specific antibodies. Unphosphorylated Akt and ERKs, as immunostained by anti-Akt and anti-ERK antibodies, were used as internal standards for the comparison of phospho-Akt and phospho-ERK levels among samples of different preparations. The blots are representative of three independent experiments.
(§4) (B) Western blot analysis of […] proteolysis and Akt dephosphorylation in PC-3 cells treated with the indicated concentrations of 33 for 48 h. (C) Effects of compound 44 on Akt phosphorylation in PC-3 cells treated with the indicated concentrations for 48 h.
as §2
Doxazosin induced apoptosis, in part, by facilitating Akt dephosphorylation. […] The potency of doxazosin in inducing apoptosis, however, was moderate.

[4] = system: sixty human tumor cells lines; experiment: NCI Developmental Therapeutic Program screening against sixty human tumor cell lines; type: cell-based; conditions: for GI50: Homo sapiens, mean among sixty cell lines, read-out: mean GI50 (concentration resulting in 50% growth inhibition); for sensitivity of all tested cell lines to growth inhibitory effects: sixty cell lines
Description: as §1

Akt = experiment: Western blot analysis of Akt phosphorylation in PC-3 cells; type: cell-based, human; conditions: for effect on Akt phosphorylation: Western blot
Description: as §3, §4
PC-3 cells (1.5×106) treated with the test agent at the indicated concentrations in RPMI 1640 medium for 24 h were collected and sonicated. Protein concentrations of the lysates were determined by using a Bradford protein assay kit (Bio-Rad, Hercules, Calif.); equivalent amounts of proteins from each lysate were resolved in 10% SDS-polyacrylamide gel and then transferred onto Immobilon-nitrocellulose membranes (Millipore, Bellerica, MA) in a semidry transfer cell. The transblotted membrane was washed twice with Tris-buffered saline (TBS) containing 0.1% Tween 20 (TBST). After blocking with TBST containing 5% nonfat milk for 40 min, the membrane was incubated with the primary antibody (1:1000 dilution) in TBST-1% nonfat milk at 4° C. overnight. After treatment with the primary antibody, the membrane was washed three times with TBST for a total of 15 min, followed by goat anti-rabbit or anti-mouse IgG-horseradish peroxidase conjugates (diluted 1:3000) for 1 h at room temperature and wash three times with TBST for a total of 1 h. The immunoblots were visualized by enhanced chemiluminescence.

ERKs = experiment: Western blot analysis of ERK phosphorylation in PC-3 cells; type: cell-based, human; conditions: even at 50 μM
Description: (A) Left panel, Time- and dose-dependent effect of doxazosin on the cell viability of PC-3 cells in 1% FBS-supplemented RPMI 1640 medium. Values obtained from six replicates were plotted at each time point at the indicated concentrations of doxazosin. Right panel, induction of poly(ADP-ribose) polymerase (PARP) cleavage by doxazosin at the indicated concentrations after 48-h treatment. PARP proteolysis to the apoptosis-specific 85-kd fragment was monitored by Western blotting. Although there was no substantial accumulation of the 85-kd fragment, significant decrease in the level of native protein was noted. (B) Dose- and time-dependent (upper and lower panels, respectively) effects of doxazosin on Akt phosphorylation. (C) dose-dependent effect of doxazosin on ERK phosphorylation. […] The phosphorylation status of Akt and ERKs was determined by immunoblotting with the respective phospho-specific antibodies. […]
PC-3 cells (1.5×106) treated with the test agent at the indicated concentrations in RPMI 1640 medium for 24 h were collected and sonicated. Protein concentrations of the lysates were determined by using a Bradford protein assay kit (Bio-Rad, Hercules, Calif.); equivalent amounts of proteins from each lysate were resolved in 10% SDS-polyacrylamide gel and then transferred onto Immobilon-nitrocellulose membranes (Millipore, Bellerica, MA) in a semidry transfer cell. […]

immunoprecipitated Akt = immunoprecipitated Akt (Homo sapiens, UniProt P31749); experiment: Kinase activity of immunoprecipitated Akt; type: biochemical
immunoprecipitated Akt, sequence (P31749 whole entry): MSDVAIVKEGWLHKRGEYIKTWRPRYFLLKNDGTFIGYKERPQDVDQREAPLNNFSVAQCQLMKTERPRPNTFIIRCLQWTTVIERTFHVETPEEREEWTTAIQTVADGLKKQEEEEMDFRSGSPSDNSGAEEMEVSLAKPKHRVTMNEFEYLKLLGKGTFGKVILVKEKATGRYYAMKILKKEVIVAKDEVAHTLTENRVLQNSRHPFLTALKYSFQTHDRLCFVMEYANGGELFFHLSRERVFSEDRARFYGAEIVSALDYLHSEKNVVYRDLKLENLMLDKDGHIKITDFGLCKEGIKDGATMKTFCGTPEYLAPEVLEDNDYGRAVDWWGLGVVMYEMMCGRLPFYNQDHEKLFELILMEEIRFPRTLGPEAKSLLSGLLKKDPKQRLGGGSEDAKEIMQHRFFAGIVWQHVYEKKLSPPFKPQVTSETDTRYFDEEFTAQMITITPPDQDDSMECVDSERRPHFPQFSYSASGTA

[5] = system: PC-3 cells overexpressing Akt^T308D/S473D; experiment: Viability of PC-3 cells transiently transfected with constitutively active Akt; type: cell-based, human; conditions: 25 μM, 1% FBS-supplemented medium, 24 h, versus empty pcDNA vector
Method: (A) Expression of Akt^T308D/S473D in PC-3 transient transfection. Western blot analysis used antibodies against Akt, and the HA tag. B) Viability of PC-3 cells overexpressing Akt^T308D/S473D vis-à-vis cells transfected with empty pcDNA vector (mock) in the presence of 25 μM doxazosin in 1% FBS-supplemented medium for 24 h. Values are means±S.D. (n=3).
The constitutively active Akt construct HA-PKB-T308D/S473D was kindly provided by Dr. Brain Hemmings (Friedrich Miescher Institute, Basel, Switzerland). PC-3 cells were seeded into T-75 flasks (1.5×10^6/flask). Aliquots containing 3 μg of each plasmid or a control pcDNA3.1(+) vector in 750 μl of Opti-MEM medium (Invitrogen-Life Technologies, Inc.,) was incubated with 9 μl of the FuGene 6 reagent (Roche Diagnostics Corp., Indianapolis, Ind.) for 15 min. Each flask was washed with Opti-MEM medium and then received the plasmid-FuGene 6 mixture and 4 ml of Opti-MEM medium. The flask was placed in a CO2 incubator for 4 h, and the transfection medium was replaced with 10% FBS-supplemented RPMI 1640. […]
To examine the causal relationship between Akt deactivation and doxazosin-mediated apoptosis, the protective effect of the transient transfection of constitutively active Akt, Akt^T308D/S473D (ref. 14), on drug-induced PC-3 cell death, was assessed. […]

serum proteins = conditions: cited from earlier work

| IC50 (PC-3 cells [2]; Homo sapiens, PC-3, 48 h) | SMILES | suppressing the proliferation [1] | IC50 (PC-3 cells [2]; 48 h) | IC50 (PC-3 cells [3]; Homo sapiens, 48 h, read-out: IC50) | GI50 [4] | sensitivity of all tested cell lines to growth inhibitory effects [4] | effect on Akt phosphorylation (Akt) | concentration at which dephosphorylation of phospho-Akt was evident (as low as) (Akt; 48 h, Western blot (FIG. 6C)) | effect on phosphorylation status of ERKs (ERKs) | inhibitory effect on kinase activity of immunoprecipitated Akt (immunoprecipitated Akt) | protection by Akt^T308D/S473D against drug-induced apoptotic death [5] | apoptotic death (PC-3 cells [3]; 1% FBS-supplemented RPMI 1640, 10 μM) | drug-induced apoptosis (PC-3 cells [3]; 1% FBS-supplemented RPMI 1640, 25 μM and up) | IC50 (PC-3 cells [3]; read-out: IC50, apoptosis-inducing potency) | binding affinity with serum proteins (serum proteins) |
| --- | --- | --- | --- | --- | --- | --- | --- | --- | --- | --- | --- | --- | --- | --- | --- |
| 4 to 5 µM | COc1cc2nc(N3CCN(S(=O)(=O)c4ccc(-c5ccccc5)cc4)CC3)nc(N)c2cc1OC [Compound 33, 2-[4-(Biphenyl-4-sulfonyl)-piperazin-1-yl]-6,7-dimethoxy-quinazolin-4-ylamine] | effective | 4.2 ± 0.8 µM | ~2.5 µM | 2.2 µM | high degree of sensitivity | inhibition of Akt activation |  |  |  |  |  |  |  |  |
| 2.5 µM | CCCOc1cc2nc(N3CCN(S(=O)(=O)c4ccc(-c5ccccc5)cc4)CC3)nc(N)c2cc1OCCC [Compound 44, 2-[4-(Biphenyl-4-sulfonyl)-piperazin-1-yl]-6,7-dipropoxy-quinazolin-4-yl-amine] | effective |  |  | 1.5 µM | high degree of sensitivity | dephosphorylation of phospho-Akt in a dose-dependent manner | 1 µM |  |  |  |  |  |  |  |
|  | COc1cc2nc(N3CCN(C(=O)C4COc5ccccc5O4)CC3)nc(N)c2cc1OC (stereo not shown) [Doxazosin] |  | 45 µM |  |  |  | Akt dephosphorylation in a dose- and time-dependent manner |  | did not affect | no inhibitory effects | partial, yet significant, protection | no appreciable apoptotic death | susceptible to the drug-induced apoptosis | 20 µM | high binding affinity |
